The values below come from US7538111B2, “Benzenesulphonamide derivatives, method for production and use thereof for treatment of pain” (Laboratoires Fournier S.A., priority 2003, dated 2009).

Data set [1] relates to formalin-induced pain response (paw licking). The data set is described as follows: formalin-induced pain response test in mice. Particulars: oral route, dose 3 mg/kg, 2nd phase 15 to 30 min after formalin injection. It is filed as in vivo. Here is the method: The compounds of the present invention were evaluated for their analgesic property using the formalin-induced pain response test in mice (Shibata, M., Ohkubo, T., Takahashi, H. & R. Inoki. Modified formalin test: characteristic biphasic pain response. Pain, 38, 347-352). To summarize, formalin (0.92% in physiological saline) is injected into the hind paw and the period of paw licking, which represents pain intensity, is recorded from 0 to 5 min (1st phase) and from 15 to 30 min (2nd phase) after the injection.

The target in data set [2] is T1, B1 receptor of bradykinin (Homo sapiens, UniProt P46663).
T1 construct: To induce expression of the B1 receptor of bradykinin, the vein segments are allowed to incubate at 37° C; from tissue; host or cells: human umbilical vein rings, endothelium removed, incubated 16 h in EMEM to induce the receptor
T1 sequence (P46663 1-353): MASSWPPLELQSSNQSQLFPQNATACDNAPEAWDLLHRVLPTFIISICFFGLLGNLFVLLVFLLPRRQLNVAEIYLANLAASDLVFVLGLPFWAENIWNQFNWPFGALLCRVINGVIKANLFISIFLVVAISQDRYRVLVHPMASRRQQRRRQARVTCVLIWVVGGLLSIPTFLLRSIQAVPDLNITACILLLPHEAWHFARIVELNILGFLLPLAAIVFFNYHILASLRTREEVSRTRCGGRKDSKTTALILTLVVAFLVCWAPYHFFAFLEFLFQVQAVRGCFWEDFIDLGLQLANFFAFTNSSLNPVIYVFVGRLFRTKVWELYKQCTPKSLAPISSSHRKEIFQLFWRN
The data set is described as follows: human umbilical vein contraction by des-Arg10-Kallidin, antagonism at the B1 receptor of bradykinin. It is filed as cell-based. Particulars: isolated human umbilical vein rings, agonist des-Arg10-Kallidin, pKB=-log KB from EC50 concentration ratio. The protocol: This test uses the human umbilical vein and is conducted as per the following protocol:
The cord is dissected in Krebs solution to release the umbilical vein. The vein is cleansed of all adhering tissue and cut into small rings 3-4 mm in width. The endothelium is carefully removed by inserting a fine n° 1 catheter, made slightly abrasive, into the vessel lumen.
After a series of rinsings, rests and load readjustments, the maximum contraction of each segment is determined by further depolarisation with the KPSS solution.
After a new rest period during which the 1 g load is constantly readjusted, the following compounds are added to the isolated organ bath: Mepyramine (1 μM), Atropine (1 μM), Indometacine (3 μM), LNA (30 μM), Captopril (10 μM), DL-Thiorphan (1 μM) and Nifedipine (0.1 μM).
After 20 minutes, the molecule to be tested or the molecule solvent is added to the isolated organ bath. The molecules are examined at 10 μM; should a molecule show a sufficient level of activity, it is examined at lower concentrations (eg: 1-0.1-0.01 μM).
After 15 minutes incubation, the vein segments are contracted through the addition of increasing concentrations of des-Arg10-Kallidin (0.1 nM to 30 000 nM) in the chamber.
The pKB=[−log KB] is obtained from the equation: KB—[A]/(concentration ratio−1) in which [A] is the concentration of antagonist and the (concentration ratio) represents the ratio between EC50 in the presence of an antagonist and EC50 in the absence of antagonist.

Each structure is given as a SMILES string. Counter-ions that a name gives are not always drawn.

One may read the melting point as the temperature of the solid-liquid transition. In turn, `CCN(CC)CCC1CCN(C(=O)COCCN(C)S(=O)(=O)c2c(C)cc(OC)cc2C)CC1.O=C(O)/C=C/C(=O)O` came in with a melting point of 60 °C.
The molecule `COc1cc(C)c(S(=O)(=O)N(C)CCOCC(=O)N2CCC(CN3CCC3)CC2)c(C)c1.O=C(O)/C=C/C(=O)O` came in with a melting point of 75 °C.
`COc1cc(C)c(S(=O)(=O)N(C)CCOCC(=O)N2CCC(CCCN3CCC3)CC2)c(C)c1.O=C(O)/C=C/C(=O)O`: the melting point was 65 °C.
`COc1cc(C)c(S(=O)(=O)N(C)CCOCC(=O)N2CCC(CCCN(C)C)CC2)c(C)c1.O=C(O)/C=C/C(=O)O` gave a melting point of 55 °C.
Still for that read-out and setting: for `COc1cc(C)c(S(=O)(=O)N(C)CCOCC(=O)N2CCN(CCCN3CCC3)CC2)c(C)c1.O=C(O)/C=C/C(=O)O.O=C(O)/C=C/C(=O)O` the value was 82 °C; for `CCN(CCOCC(=O)N1CCN(CCCN(C)C)CC1)S(=O)(=O)c1c(C)cc(OC)cc1C.O=C(O)/C=C/C(=O)O.O=C(O)/C=C/C(=O)O`, 60 °C; for `COc1cc(Cl)c(S(=O)(=O)N(C)CCOCC(=O)N2CCN(CCCN(C)C)CC2)c(Cl)c1.O=C(O)/C=C/C(=O)O.O=C(O)/C=C/C(=O)O`, 60 °C.
The molecule `COc1cc(C)c(S(=O)(=O)N(C)CCOCC(=O)N2CCC(C(C)(C)CN3CCC3)CC2)c(C)c1.O=C(O)/C=C/C(=O)O` yielded a melting point of 60 to 62 °C.
Same read-out and setting: for `COc1cc(Cl)c(S(=O)(=O)N(C)CCOCC(=O)N2CCC(CCN(C)C)CC2)c(Cl)c1.O=C(O)/C=C/C(=O)O` the value was 70 °C; for `COc1cc(C)c(S(=O)(=O)N(CCOCC(=O)N2CCN(CCN3CCCC3)CC2)C2CC2)c(C)c1` (as salt: fumarate) [Example 19, N-[2-[2-[4-[2-(1-pyrrolidinyl)ethyl]-1-piperazinyl]-2-oxo-ethoxy]ethyl]-4-methoxy-N-cyclopropyl-2,6-dimethylbenzenesulphonamide, difumarate], 141 °C; for `CCN(CCOCC(=O)N1CCN(C2CCN(C)CC2)CC1)S(=O)(=O)c1c(C)cc(OC)cc1C` (as salt: fumarate) [Example 21, N-[2-[2-[4-(1-methyl-4-piperidinyl)-1-piperazinyl]-2-oxo-ethoxy]ethyl]-4-methoxy-N-ethyl-2,6-dimethylbenzenesulphonamide, difumarate], 206 °C.
On the same count and under the same terms, to `COc1cc(C)c(S(=O)(=O)N(C)CCOCC(=O)N2CCN(C3CCN(C(C)(C)C)CC3)CC2)c(C)c1` (as salt: fumarate) [Example 32, N-[2-[2-[4-[1-(1,1-dimethylethyl)-4-piperidinyl]-1-piperazinyl]-2-oxo-ethoxy]ethyl]-4-methoxy-N,2,6-trimethylbenzenesulphonamide, difumarate] belongs 230 °C.
Still for that read-out and setting: to `COc1cc(C)c(S(=O)(=O)N(C)CCOCC(=O)N2CCN(CCCN3CCN(C)CC3)CC2)c(C)c1` (as salt: fumarate) [Example 45, N-[2-[2-[4-[3-(4-methyl-1-piperazinyl)propyl]-1-piperazinyl]-2-oxo-ethoxy]ethyl]-4-methoxy-N,2,6-trimethylbenzenesulphonamide, difumarate] belongs 204 °C.
Take `CCN1C2CCC1CC(N1CCN(C(=O)COCCN(C)S(=O)(=O)c3c(C)cc(OC)cc3C)CC1)C2` (centres unmarked) (as salt: fumarate) [Example 46, N-[2-[2-[4-(8-ethyl-8-azabicyclo[3.2.1]oct-3-yl)-1-piperazinyl]-2-oxo-ethoxy]ethyl]-4-methoxy-N,2,6-trimethylbenzenesulphonamide, difumarate]: the melting point worked out at 132 °C.
Still for that read-out and setting: to `COc1cc(C)c(S(=O)(=O)N(C)CCOCC(=O)N2CCC(CCN3CCCC3)CC2)c(C)c1` (as salt: fumarate) [Example 76, 4-methoxy-N,2,6-trimethyl-N-[2-[2-[4-[2-(1-pyrrolidinyl)ethyl]-1-piperidinyl]-2-oxoethoxy]ethyl]benzenesulphonamide, fumarate] belongs 55 °C; to `COc1cc(C)c(S(=O)(=O)N(CCOCC(=O)N2CCC(CCN3CCCC3)CC2)C2CC2)c(C)c1` (as salt: fumarate) [Example 79, N-cyclopropyl-4-methoxy-2,6-dimethyl-N-[2-[2-[4-[2-(1-pyrrolidinyl)ethyl]-1-piperidinyl]-2-oxoethoxy]ethyl]benzenesulphonamide, fumarate], 50 °C.
For `COc1cc(C)c(S(=O)(=O)N(C)CCOCC(=O)N2CCN(C3CN4CCC3CC4)CC2)c(C)c1` (racemic) [Example 4, N-[2-[2-[4-[(3RS)-1-azabicyclo[2.2.2]oct-3-yl]-1-piperazinyl]-2-oxo-ethoxy]ethyl]-4-methoxy-N,2,6-trimethylbenzenesulphonamide, difumarate], the “percentage inhibition of the second paw licking phase induced by formalin” value in data set [1] was determined as 43%.
In general, Kb refers to the equilibrium dissociation constant of an antagonist, usually derived from a functional assay. `COc1cc(C)c(S(=O)(=O)N(CCOCC(=O)N2CCN(CCN3CCCC3)CC2)C2CC2)c(C)c1` [Example 19, N-[2-[2-[4-[2-(1-pyrrolidinyl)ethyl]-1-piperazinyl]-2-oxo-ethoxy]ethyl]-4-methoxy-N-cyclopropyl-2,6-dimethylbenzenesulphonamide, difumarate]: the antagonist equilibrium constant (Kb) in data set [2] was 31.6 nM.
The same measure, in the same setting: for `CCN(CCOCC(=O)N1CCN(C2CCN(C)CC2)CC1)S(=O)(=O)c1c(C)cc(OC)cc1C` [Example 21, N-[2-[2-[4-(1-methyl-4-piperidinyl)-1-piperazinyl]-2-oxo-ethoxy]ethyl]-4-methoxy-N-ethyl-2,6-dimethylbenzenesulphonamide, difumarate] the value was 15.8 nM.
For `COc1cc(C)c(S(=O)(=O)N(C)CCOCC(=O)N2CCN(C3CCN(C(C)(C)C)CC3)CC2)c(C)c1` [Example 32, N-[2-[2-[4-[1-(1,1-dimethylethyl)-4-piperidinyl]-1-piperazinyl]-2-oxo-ethoxy]ethyl]-4-methoxy-N,2,6-trimethylbenzenesulphonamide, difumarate], the Kb in data set [2] was 0.631 nM.
The same measure, in the same setting: to `COc1cc(C)c(S(=O)(=O)N(C)CCOCC(=O)N2CCN(CCCN3CCN(C)CC3)CC2)c(C)c1` [Example 45, N-[2-[2-[4-[3-(4-methyl-1-piperazinyl)propyl]-1-piperazinyl]-2-oxo-ethoxy]ethyl]-4-methoxy-N,2,6-trimethylbenzenesulphonamide, difumarate] belongs 12.6 nM.
In the case of `CCN1C2CCC1CC(N1CCN(C(=O)COCCN(C)S(=O)(=O)c3c(C)cc(OC)cc3C)CC1)C2` (centres unmarked) [Example 46, N-[2-[2-[4-(8-ethyl-8-azabicyclo[3.2.1]oct-3-yl)-1-piperazinyl]-2-oxo-ethoxy]ethyl]-4-methoxy-N,2,6-trimethylbenzenesulphonamide, difumarate], in data set [2], the Kb is 2.51 nM.
The same measure, in the same setting: to `COc1cc(C)c(S(=O)(=O)N(C)CCOCC(=O)N2CCC(CCN3CCCC3)CC2)c(C)c1` [Example 76, 4-methoxy-N,2,6-trimethyl-N-[2-[2-[4-[2-(1-pyrrolidinyl)ethyl]-1-piperidinyl]-2-oxoethoxy]ethyl]benzenesulphonamide, fumarate] belongs 10 nM.
Same read-out and setting: for `COc1cc(C)c(S(=O)(=O)N(CCOCC(=O)N2CCC(CCN3CCCC3)CC2)C2CC2)c(C)c1` [Example 79, N-cyclopropyl-4-methoxy-2,6-dimethyl-N-[2-[2-[4-[2-(1-pyrrolidinyl)ethyl]-1-piperidinyl]-2-oxoethoxy]ethyl]benzenesulphonamide, fumarate] the value was 7.94 nM.
Same read-out and setting: to `CCN1CCC(C2CCN(C(=O)COCCN(C)S(=O)(=O)c3c(C)cc(OC)cc3C)CC2)CC1` [Example 84, 4-methoxy-N,2,6-trimethyl-N-[2-[2-[4-(1-ethyl-4-piperidinyl)-1-piperidinyl]-2-oxoethoxy]ethyl]benzenesulphonamide, fumarate] belongs 0.631 nM; to `COc1cc(C)c(S(=O)(=O)N(C)CCOCC(=O)N2CCC(N3CCCN(C)CC3)CC2)c(C)c1` [Example 89, N-[2-[2-[4-(hexahydro-4-methyl-1H-1,4-diazepin-1-yl)-1-piperidinyl]-2-oxoethoxy]ethyl]-4-methoxy-N,2,6-trimethylbenzenesulphonamide, fumarate], 7.94 nM.
